Key:
[1] = test system: pro-MMP-1; experiment: Experiment 5: immunoblot of pro-MMP-1 in rheumatoid fibroblasts; type: cell-based, human; details: 36 hours, 10 ng/ml TPA plus 5×10^-7M substance, compared to TPA alone (lane 5)
Experimental: Rheumatoid fibroblasts were cultured from synovium obtained from the knee joint of a patient with rheumatoid arthritis. Cells were cultured in monolayer with DMEM tissue culture medium (Gibco) with the inclusion of 5% v/v charcoal stripped serum in 75 cm^2 flasks. The cells were treated for 36 hours with the addition of 10 ng/ml TPA (phorbol ester) plus 5×10^−7M thyroid hormone, Compound II or Compound III. TPA and drugs were added at time zero and at 30 hours, the TPA addition ensured phosphorylation of c-jun.
After 36 hours, cells were lysed in phosphate buffered saline (PBS) containing protease inhibitors and 0.1% Triton-X-100, and then boiled for 5 minutes in non-reducing gel loading buffer. Samples of cell lysate corresponding to equal cell number were loaded onto a 12.5% SDS polyacrylamide gel, and electrophoresis using a Bio-Rad™, (Bio-Rad Laboratories, California USA) Mini Protean II cell was performed at approximately 100V for one hour.
Transfer of proteins to nitrocellulose membrane was performed using a Bio-Rad Mini Trans-Blot transfer cell.
Immunoblotting was performed using polyclonal rabbit anti-human phosphorylation specific (set 73) c-jun (cat. No 06659, Upstate Biotechnology), or MMP-1 (cat. No. RDI-MMP1Habr, Research Diagnostics) antibodies diluted 1:1000 in Tris buffered saline+3% fat free milk powder. […]

[2] = biological target: T1, glucocorticoid receptor (Homo sapiens, UniProt P04150); experiment: Experiment 2: PGL3MMTV-luciferase transactivation in CV1 cells with glucocorticoid receptor (GR1); type: cell-based; details: for % control (GR1): Blank = 100
T1 construct: expressed in transfected cells; host or cells: CV1 (transformed African Green Monkey kidney cell line)
T1 sequence (P04150 1-777): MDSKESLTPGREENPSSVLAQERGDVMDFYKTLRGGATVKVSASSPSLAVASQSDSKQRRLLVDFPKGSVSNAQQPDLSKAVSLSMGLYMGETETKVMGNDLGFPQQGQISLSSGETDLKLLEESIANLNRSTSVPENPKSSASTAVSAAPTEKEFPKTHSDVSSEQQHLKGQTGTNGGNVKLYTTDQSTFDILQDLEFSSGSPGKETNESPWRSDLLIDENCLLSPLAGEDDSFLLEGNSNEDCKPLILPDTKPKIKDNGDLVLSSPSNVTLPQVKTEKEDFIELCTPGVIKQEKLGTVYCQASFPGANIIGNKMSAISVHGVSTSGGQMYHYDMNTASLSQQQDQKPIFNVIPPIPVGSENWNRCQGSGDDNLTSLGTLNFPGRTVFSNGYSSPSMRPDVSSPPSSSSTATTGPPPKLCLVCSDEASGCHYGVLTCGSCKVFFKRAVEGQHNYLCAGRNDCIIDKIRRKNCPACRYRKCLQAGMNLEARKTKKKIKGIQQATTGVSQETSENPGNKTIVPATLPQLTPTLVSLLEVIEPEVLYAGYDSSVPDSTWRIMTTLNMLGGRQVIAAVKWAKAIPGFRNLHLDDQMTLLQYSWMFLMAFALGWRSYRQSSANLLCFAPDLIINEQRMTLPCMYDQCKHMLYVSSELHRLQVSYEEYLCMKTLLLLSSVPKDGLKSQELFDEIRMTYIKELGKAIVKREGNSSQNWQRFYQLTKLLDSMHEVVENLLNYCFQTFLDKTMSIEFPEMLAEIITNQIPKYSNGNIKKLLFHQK
From the text: (§1) Two plasmid constructs were introduced by standard calcium phosphate precipitation of DNA followed by glycerol shock (Ausubel F M, Brent R, Kingston D D, Moore J G et al Current protocols in molecular biology 1994 Greene Publishing Associates/Wiley-Interscience, New York, N.Y.) using a transformed African Green Monkey kidney cell line (CV1) (Schneikert J, Peterziel H, Defossez P-A, Klocker H, de Launoit Y and Cato A C B Androgen receptor-Ets protein interaction is a novel mechanism for steroid hormone-mediated down-modulation of matrix metalloproteinase expression, Journal of Biological Chemistry. Vol 271(39) (pp 23907-23913), 1996).
(§2) This experiment was intended to investigate the activation of androgen and corticosteroid receptors by compound I.
(§3) CPII was compound II above, clobuzarit, which was used at 10^−7M.

[3] = biological target: T2, androgen receptor (Homo sapiens, UniProt P10275); experiment: Experiment 2: PGL3MMTV-luciferase transactivation in CV1 cells with androgen receptor (AR); type: cell-based; details: for % control (AR): Blank = 100
T2 construct: expressed in transfected cells; host or cells: CV1 (transformed African Green Monkey kidney cell line)
T2 sequence (P10275 1-920): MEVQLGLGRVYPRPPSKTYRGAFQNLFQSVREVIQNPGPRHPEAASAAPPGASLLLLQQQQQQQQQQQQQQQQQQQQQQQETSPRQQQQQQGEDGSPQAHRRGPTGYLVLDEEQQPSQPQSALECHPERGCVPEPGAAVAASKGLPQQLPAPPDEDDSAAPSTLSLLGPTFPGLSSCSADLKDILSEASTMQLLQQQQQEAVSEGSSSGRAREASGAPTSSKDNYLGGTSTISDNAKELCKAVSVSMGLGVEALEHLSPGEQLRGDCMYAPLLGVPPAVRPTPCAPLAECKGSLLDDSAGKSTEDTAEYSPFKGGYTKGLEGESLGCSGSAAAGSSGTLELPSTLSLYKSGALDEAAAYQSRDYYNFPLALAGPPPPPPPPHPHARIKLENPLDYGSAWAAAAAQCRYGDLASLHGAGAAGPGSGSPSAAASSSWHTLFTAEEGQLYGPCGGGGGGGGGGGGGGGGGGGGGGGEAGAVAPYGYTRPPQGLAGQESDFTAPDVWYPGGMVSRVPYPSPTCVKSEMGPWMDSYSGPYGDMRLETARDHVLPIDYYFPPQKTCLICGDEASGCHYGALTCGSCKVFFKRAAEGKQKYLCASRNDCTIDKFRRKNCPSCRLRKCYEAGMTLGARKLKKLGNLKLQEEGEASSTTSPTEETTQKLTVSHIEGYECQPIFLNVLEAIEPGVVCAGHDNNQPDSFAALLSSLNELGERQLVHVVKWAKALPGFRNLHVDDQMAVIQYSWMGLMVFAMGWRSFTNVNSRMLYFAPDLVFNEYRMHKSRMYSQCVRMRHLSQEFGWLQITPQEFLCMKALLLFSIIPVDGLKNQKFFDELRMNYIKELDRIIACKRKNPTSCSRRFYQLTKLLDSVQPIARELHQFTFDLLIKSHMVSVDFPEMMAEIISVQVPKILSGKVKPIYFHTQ
From the text: as §1, §2, §3

[4] = CPII 10^-7M together with Dex 10^-7M
[5] = CPII 10^-7M together with DHT 10^-7M

activation of glucocorticoid receptor-driven transcription, in words ([2]; 10^-7M, compared with Dex): negligible activity | Raw counts (GR1) [2, 4]: 748249 counts | % control (GR1) [2, 4]: 20965% | Raw counts (GR1) ([2]; substance alone at 10^-7M): 3272 counts | % control (GR1) ([2]; substance alone at 10^-7M): 92% | activation of androgen receptor-driven transcription, in words ([3]; 10^-7M, compared with DHT): negligible activity | Raw counts (AR) [3, 5]: 1232241 counts | % control (AR) [3, 5]: 26574% | Raw counts (AR) ([3]; substance alone at 10^-7M): 33130 counts | % control (AR) ([3]; substance alone at 10^-7M): 714%
Structure (SMILES): CC(C)(OCc1ccc(-c2ccc(Cl)cc2)cc1)C(=O)O [Compound II, 1-[4-(4-chlorophenyl)benzyloxy]-1-methylpropionic acid]
amount of pro-MMP-1, band intensity [1]: lower intensity

From patent US20070213402A1, “Compounds which interact with the thyroid hormone receptor for the treatment of fibrotic disease” (priority 1998, published 2007)
